{"source": "paper PMC3567251", "about": "(Biochemistry, 2012)", "key": {"PfADA [1]": {"test_system": "PfADA", "conditions": "substrate; ref Ting et al. [13]; cited from earlier work"}, "bovine ADA": {"test_system": "bovine ADA", "conditions": "result in words; cited from earlier work"}, "PaMTADA [2]": {"molecular_target": "T1, PaMTADA (Pseudomonas aeruginosa, UniProt Q9HZ64)", "assay_type": "biochemical"}, "PaMTADA [3]": {"test_system": "PaMTADA", "assay_type": "biochemical, Pseudomonas aeruginosa", "conditions": "times higher than PfADA"}, "human ADA [4]": {"test_system": "human ADA", "conditions": "cited from earlier work"}, "PfADA [5]": {"molecular_target": "PfADA", "conditions": "cited from earlier work"}, "human ADA [6]": {"molecular_target": "human ADA", "conditions": "cited from earlier work; for inhibition of human ADA: result in words"}, "P. aeruginosa PAO1": {"test_system": "P. aeruginosa PAO1", "experiment": "Growth of P. aeruginosa PAO1 with or without MTCF", "assay_type": "cell-based", "conditions": "up to 1 μM, 36 hours, 37 °C"}, "[7]": {"molecular_target": "T2, cellular PaMTADA activity (Pseudomonas aeruginosa, UniProt Q9HZ64)", "T2 sequence (Q9HZ64 1-444)": "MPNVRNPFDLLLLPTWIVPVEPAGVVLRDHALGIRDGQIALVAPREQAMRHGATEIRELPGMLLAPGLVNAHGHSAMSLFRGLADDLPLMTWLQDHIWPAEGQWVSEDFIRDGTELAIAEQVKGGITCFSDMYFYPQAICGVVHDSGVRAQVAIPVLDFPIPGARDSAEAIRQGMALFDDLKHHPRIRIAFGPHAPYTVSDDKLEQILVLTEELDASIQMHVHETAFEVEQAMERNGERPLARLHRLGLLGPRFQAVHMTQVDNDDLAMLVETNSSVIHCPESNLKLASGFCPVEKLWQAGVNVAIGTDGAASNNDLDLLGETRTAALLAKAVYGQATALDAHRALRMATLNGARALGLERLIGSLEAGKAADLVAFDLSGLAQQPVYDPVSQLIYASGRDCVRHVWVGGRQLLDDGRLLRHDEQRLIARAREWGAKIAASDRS", "experiment": "Inhibition of cellular PaMTADA", "assay_type": "cell-based, P. aeruginosa PAO1"}, "PaMTADA [8]": {"molecular_target": "T3, PaMTADA (Pseudomonas aeruginosa, UniProt Q9HZ64)", "T3 sequence (Q9HZ64 1-444)": "T2 sequence (Q9HZ64 1-444)", "experiment": "Inhibition of PaMTADA activity in cell lysates", "assay_type": "biochemical, P. aeruginosa PAO1", "conditions": "cell lysate, 50 nM inhibitor"}, "PfADA [9]": {"test_system": "PfADA", "experiment": "Inhibition of PfADA", "assay_type": "biochemical, Plasmodium falciparum", "conditions": "times weaker than CF"}, "PaMTADA [10]": {"molecular_target": "T1, PaMTADA", "assay_type": "biochemical", "conditions": "times weaker than MTDCF"}, "[11]": {"conditions": "substrate, ref Tyler et al. [16]"}, "[12]": {"conditions": "read-out: Ki* from slow-onset inhibition, Ki* values"}, "[13]": {"conditions": "equilibrium dissociation constant"}}, "note": "“And” between values parts separate entries of the source, which are not always exact repeats. Identical values can stand only once. “Also recorded” adds a separate entry of the source. Like-named read-outs stand apart in the source and are kept apart here.", "data": [{"molecule": "5′-methylthioadenosine [MTA]", "values": [{"measurement": "Km", "setting": "PfADA [1]", "value": "170 ± 20", "unit": "µM"}, {"measurement": "kcat", "setting": "PfADA [1]", "value": "15.0 ± 0.9", "unit": "s⁻¹"}, {"measurement": "use as substrate by bovine ADA", "setting": "bovine ADA", "value": "do not utilize"}, {"measurement": "catalytic efficiency (kcat/Km) for MTA relative to adenosine", "setting": "PaMTADA [2]; MTA over adenosine", "value": 40, "unit": "fold"}, {"measurement": "Km", "setting": "PaMTADA [2]; substrate, 25 °C, pH 7.4", "value": "1.5 ± 0.3", "unit": "µM"}, {"measurement": "kcat", "setting": "PaMTADA [2]; substrate, 25 °C, pH 7.4", "value": "24.6 s⁻¹ and 24.6 ± 0.8 s⁻¹"}, {"measurement": "catalytic efficiency of PaMTADA on MTA relative to PfADA", "setting": "PaMTADA [3]", "value": 160, "unit": "times"}, {"measurement": "use as substrate by human ADA", "setting": "human ADA [4]; result in words", "value": "do not utilize"}, {"measurement": "kcat", "setting": "human ADA [4]; [11]", "value": "< 0.02", "unit": "s⁻¹"}]}, {"molecule": "OC[C@H]1O[C@@H](n2cnc3c2N=CNC[C@H]3O)[C@H](O)[C@@H]1O", "note": "[Coformycin (CF), (2R,3R,4S,5R)-2-((R)-8-hydroxy-7,8-dihydroimidazo[4,5-d][1,3]diazepin-3(6H)-yl)-5-(hydroxymethyl)tetrahydrofuran-3,4-diol, reference compound]", "values": [{"measurement": "Ki", "setting": "PfADA [5]; [12]", "value": "0.08 ± 0.02", "unit": "nM"}, {"measurement": "Ki", "setting": "human ADA [6]; [12]", "value": "0.11 ± 0.02", "unit": "nM"}]}, {"molecule": "CSC[C@H]1O[C@@H](n2cnc3c2N=CNC[C@H]3O)[C@H](O)[C@@H]1O", "note": "[MTCF, 5′-methylthiocoformycin]", "values": [{"measurement": "effect on cell growth based on OD600", "setting": "P. aeruginosa PAO1", "value": "no effect"}, {"measurement": "Ki", "setting": "PfADA [5]; [12]", "value": "0.4 ± 0.1", "unit": "nM"}, {"measurement": "PaMTADA activity", "setting": "[7]; 500 nM MTCF in LB medium plus 100 nM MTCF added to cell lysate", "value": "All PaMTADA activity was inhibited"}, {"measurement": "concentration of maximal inhibition", "setting": "[7]; MTCF in LB medium", "value": 10, "unit": "nM"}, {"measurement": "degradation of MTA", "setting": "PaMTADA [8]", "value": "completely blocked"}, {"measurement": "Ki", "setting": "human ADA [6]; [13]", "value": "> 10000", "unit": "nM"}, {"measurement": "inhibition of human ADA", "setting": "human ADA [6]", "value": "no significant inhibition; also recorded: no inhibitory effect; also recorded: no significant inhibitory effects"}]}, {"molecule": "CSC[C@H]1O[C@@H](n2cnc3c2N=CNC[C@H]3O)C[C@@H]1O", "note": "[MTDCF, 5′-methylthio-2′-deoxycoformycin]", "values": [{"measurement": "Ki", "setting": "PfADA [5]; [12]", "value": "0.7 ± 0.2", "unit": "nM"}, {"measurement": "binding affinity for PfADA relative to CF", "setting": "PfADA [9]", "value": 9, "unit": "times"}, {"measurement": "Ki", "setting": "human ADA [6]; [13]", "value": "> 10000", "unit": "nM"}, {"measurement": "inhibition of human ADA", "setting": "human ADA [6]", "value": "no inhibitory effect"}]}, {"molecule": "O[C@@H]1CNC=Nc2c1ncn2[C@H]1C[C@H](O)[C@@H](CSc2ccccc2)O1", "note": "[PhTDCF, 5′-phenylthio-2′-deoxycoformycin]", "values": [{"measurement": "Ki", "setting": "PfADA [5]; [13]", "value": "60 ± 10", "unit": "nM"}]}, {"molecule": "CCCSC[C@H]1O[C@@H](n2cnc3c2N=CNC[C@H]3O)C[C@@H]1O", "note": "[PrTDCF, 5′-propylthio-2′-deoxycoformycin]", "values": [{"measurement": "binding to PaMTADA relative to MTDCF", "setting": "PaMTADA [10]", "value": 8, "unit": "times"}, {"measurement": "Ki", "setting": "PfADA [5]; [13]", "value": "12 ± 1", "unit": "nM"}, {"measurement": "binding affinity for PfADA relative to CF", "setting": "PfADA [9]", "value": 150, "unit": "times"}, {"measurement": "Ki", "setting": "human ADA [6]; [13]", "value": "> 10000", "unit": "nM"}]}, {"molecule": "Nc1ncnc2c1ncn2[C@@H]1O[C@H](CO)[C@@H](O)[C@H]1O", "note": "[adenosine]", "values": [{"measurement": "kcat", "setting": "PfADA [1]", "value": "1.8 ± 0.1", "unit": "s⁻¹"}, {"measurement": "kcat", "setting": "PaMTADA [2]; substrate, 25 °C, pH 7.4", "value": "17 ± 1", "unit": "s⁻¹"}, {"measurement": "Km", "setting": "human ADA [4]; [11]", "value": "22 ± 3", "unit": "µM"}, {"measurement": "kcat", "setting": "human ADA [4]; [11]", "value": "36 ± 1", "unit": "s⁻¹"}]}]}
